The values below come from ChEMBL document CHEMBL1240303, “Inhibiting transcription of chromosomal DNA with antigene peptide nucleic acids” (2005).

By inhibition is commonly meant the change of the read-out against control, counted positive when it falls.

Calls of active or inactive are those of the source. The calls are words filed in the database; no cut-off is given here.

The test system of assay [1] is T47D. In words: Inhibition of human progesterone receptor A protein expression transfected in human T47D cells at 25 nM by Western blot. The format is functional, cell-based.
In assay [2] the test system is T47D. Kind of assay: Inhibition of human progesterone receptor B protein expression transfected in human T47D cells at 25 nM by Western blot. In kind it is functional, cell-based. (A western blot detects proteins with antibodies after separation by electrophoresis.)
Assay [3] deals with T47D. In words: Inhibition of human progesterone receptor A protein expression transfected in human T47D cells at 200 nM by Western blot. The format is functional.
Assay [4] concerns T47D. In words: Inhibition of human progesterone receptor B protein expression transfected in human T47D cells at 200 nM by Western blot. In kind it is functional.
Assay [5] concerns T47D. In words: Inhibition of human progesterone receptor A protein expression transfected in human T47D cells at 200 nM in presence of 10 nM of estradiol by Western blot. In kind it is functional, cell-based.
The subject of assay [6] is T47D. Kind of assay: Inhibition of human progesterone receptor B protein expression transfected in human T47D cells at 200 nM in presence of 10 nM of estradiol by Western blot. In kind it is functional, cell-based.
The subject of assay [7] is T47D. Kind of assay: Inhibition of human progesterone receptor A gene expression transfected in human T47D cells at 200 nM by RT-PCR. In kind it is functional, cell-based.
The test system of assay [8] is T47D. Kind of assay: Inhibition of human progesterone receptor B gene expression transfected in human T47D cells at 200 nM by RT-PCR. In kind it is functional, cell-based.
The test system of assay [9] is T47D. Kind of assay: Induction of morphology changes in human T47D cells expressing human progesterone receptor assessed as increase in cell height by confocal microscopy. In kind it is functional, cell-based.
The subject of assay [10] is T47D. Kind of assay: Reduction in cell proliferation of human T47D cells expressing human progesterone receptor by FACS method. The format is functional, cell-based. For orientation: In flow cytometry, cells or beads pass a laser one at a time.
Assay [11] deals with T47D. In words: Increase in Ezrin mRNA expression in human T47D cells expressing human progesterone receptor by RT-PCR relative to untreated control. The format is functional.

Turning to `Cc1cn(CC(=O)N(CCNC(=O)CN(CCNC(=O)CNC(=O)[C@H](N)CCCCN)C(=O)Cn2c(N)ccnc2=O)CC(=O)NCCN(CC(=O)NCCN(CC(=O)NCCN(CC(=O)NCCN(CC(=O)NCCN(CC(=O)NCCN(CC(=O)NCCN(CC(=O)NCCN(CC(=O)NCCN(CC(=O)NCCN(C(=O)CNCCN(CC(=O)NCCN(CC(=O)NCCN(CC(=O)NCCN(CC(=O)NCCN(CC(=O)NCCN(CC(=O)NCCN(CC(=O)N[C@@H](CCCCN)C(=O)O)C(=O)Cn2c(N)ccnc2=O)C(=O)Cn2cnc3nc(N)[nH]c(=O)c32)C(=O)Cn2c(N)ccnc2=O)C(=O)Cn2c(N)ccnc2=O)C(=O)Cn2cc(C)c(=O)[nH]c2=O)C(=O)Cn2c(N)ccnc2=O)C(=O)Cn2cnc3c(N)ncnc32)C(=O)Cn2c(N)ccnc2=O)C(=O)Cn2cnc3nc(N)[nH]c(=O)c32)C(=O)Cn2cc(C)c(=O)[nH]c2=O)C(=O)Cn2c(N)ccnc2=O)C(=O)Cn2cnc3c(N)ncnc32)C(=O)Cn2c(N)ccnc2=O)C(=O)Cn2c(N)ccnc2=O)C(=O)Cn2cnc3c(N)ncnc32)C(=O)Cn2cnc3nc(N)[nH]c(=O)c32)C(=O)Cn2cc(C)c(=O)[nH]c2=O)c(=O)[nH]c1=O`, the inhibition entry in assay [1] and in assay [2] was “inactive” in each case.
For the compound `Cc1cn([C@@H]2O[C@H](COP(=O)(O)O[C@H]3[C@@H](O)[C@H](n4cnc5c(=O)[nH]c(N)nc54)O[C@@H]3COP(=O)(O)O[C@H]3[C@@H](O)[C@H](n4ccc(=O)[nH]c4=O)O[C@@H]3COP(=O)(O)O[C@H]3[C@@H](O)[C@H](n4cnc5c(N)ncnc54)O[C@@H]3COP(=O)(O)O[C@H]3C[C@H](n4ccc(N)nc4=O)O[C@@H]3COP(=O)(O)O[C@H]3[C@@H](O)[C@H](n4ccc(=O)[nH]c4=O)O[C@@H]3COP(=O)(O)O[C@H]3C[C@H](n4cnc5c(=O)[nH]c(N)nc54)O[C@@H]3COP(=O)(O)O[C@H]3[C@@H](O)[C@H](N4CC=C(N)NC4=O)O[C@@H]3COP(=O)(O)O[C@H]3[C@@H](O)[C@H](n4ccc(=O)[nH]c4=O)O[C@@H]3COP(=O)(O)O[C@H]3[C@@H](O)[C@H](n4cnc5c(=O)[nH]c(N)nc54)O[C@@H]3COP(=O)(O)O[C@H]3[C@@H](O)[C@H](n4cnc5c(N)ncnc54)O[C@@H]3COP(=O)(O)O[C@H]3[C@@H](O)[C@H](n4ccc(N)nc4=O)O[C@@H]3COP(=O)(O)O[C@H]3[C@@H](O)[C@H](n4ccc(N)nc4=O)O[C@@H]3COP(=O)(O)O[C@H]3[C@@H](O)[C@H](n4ccc(=O)[nH]c4=O)O[C@@H]3COP(=O)(O)O[C@H]3C[C@H](n4cnc5c(=O)[nH]c(N)nc54)O[C@@H]3COP(=O)(O)O[C@H]3[C@@H](O)[C@H](n4cnc5c(N)ncnc54)O[C@@H]3COP(=O)(O)O[C@H]3[C@@H](O)[C@H](n4cnc5c(=O)[nH]c(N)nc54)O[C@@H]3COP(=O)(O)O[C@H]3[C@@H](O)[C@H](n4cnc5c(=O)[nH]c(N)nc54)O[C@@H]3COP(=O)(O)O[C@H]3[C@@H](O)[C@H](n4cnc5c(=O)[nH]c(N)nc54)O[C@@H]3COP(=O)(O)O[C@H]3[C@@H](O)[C@H](n4cnc5c(=O)[nH]c(N)nc54)O[C@@H]3CO)[C@@H](OP(=O)(O)OC[C@H]3O[C@@H](n4cc(C)c(=O)[nH]c4=O)C[C@@H]3O)[C@H]2O)c(=O)[nH]c1=O`, the inhibition entry in [1] and in [2] was “Active” in each case.
As for `Cc1cn(CC(=O)N(CCNC(=O)CN(CCNC(=O)CN(CCNCC(=O)N(CCNC(=O)CN(CCNC(=O)CN(CCNC(=O)CN(CCNC(=O)CN(CCNC(=O)CN(CCNC(=O)CN(CCNC(=O)CN(CCNC(=O)CN(CCNC(=O)CN(CCNC(=O)CN(CCNC(=O)CN(CCNC(=O)CNC(=O)[C@@H](N)CCCCN)C(=O)Cn2c(N)ccnc2=O)C(=O)Cn2cnc3c(N)ncnc32)C(=O)Cn2cc(C)c(=O)[nH]c2=O)C(=O)Cn2cnc3nc(N)[nH]c(=O)c32)C(=O)Cn2cnc3c(N)ncnc32)C(=O)Cn2c(N)ccnc2=O)C(=O)Cn2cnc3nc(N)[nH]c(=O)c32)C(=O)Cn2cnc3c(N)ncnc32)C(=O)Cn2c(N)ccnc2=O)C(=O)Cn2cc(C)c(=O)[nH]c2=O)C(=O)Cn2cnc3nc(N)[nH]c(=O)c32)C(=O)Cn2cnc3nc(N)[nH]c(=O)c32)C(=O)Cn2cnc3c(N)ncnc32)C(=O)Cn2c(N)ccnc2=O)CC(=O)NCCN(CC(=O)NCCN(CC(=O)NCCN(CC(=O)NCCN(CC(=O)N[C@@H](CCCCN)C(=O)O)C(=O)Cn2c(N)ccnc2=O)C(=O)Cn2c(N)ccnc2=O)C(=O)Cn2c(N)ccnc2=O)C(=O)Cn2c(N)ccnc2=O)c(=O)[nH]c1=O`, the inhibition result in [1] and in assay [2] was “Active” throughout.
With `Cc1cn(CC(=O)N(CCNC(=O)CN(CCNC(=O)CN(CCNC(=O)CNC(=O)[C@@H](N)CCCCN)C(=O)Cn2cc(C)c(=O)[nH]c2=O)C(=O)Cn2cnc3c(=O)[nH]c(N)nc32)CC(=O)NCCN(CC(=O)NCCN(CC(=O)NCCN(CC(=O)NCCN(CC(=O)NCCN(CC(=O)NCCN(CC(=O)NCCN(CC(=O)NCCN(CC(=O)NCCN(CC(=O)NCCN(CC(=O)NCCN(CC(=O)NCCN(CC(=O)NCCN(CC(=O)NCCN(CC(=O)NCCN(CC(=O)NCCN(CC(=O)N[C@@H](CCCCN)C(=O)O)C(=O)Cn2ccc(N)nc2=O)C(=O)Cn2cnc3c(=O)[nH]c(N)nc32)C(=O)Cn2cnc3c(N)ncnc32)C(=O)Cn2ccc(N)nc2=O)C(=O)Cn2cnc3c(N)ncnc32)C(=O)Cn2ccc(N)nc2=O)C(=O)Cn2ccc(N)nc2=O)C(=O)Cn2cc(C)c(=O)[nH]c2=O)C(=O)Cn2cnc3c(=O)[nH]c(N)nc32)C(=O)Cn2cnc3c(N)ncnc32)C(=O)Cn2ccc(N)nc2=O)C(=O)Cn2ccc(N)nc2=O)C(=O)Cn2cnc3c(=O)[nH]c(N)nc32)C(=O)Cn2cnc3c(=O)[nH]c(N)nc32)C(=O)Cn2cc(C)c(=O)[nH]c2=O)C(=O)Cn2ccc(N)nc2=O)c(=O)[nH]c1=O`, the inhibition at 0.2 µM in [3] and in assay [4] was 75% in each case. Besides, the inhibition entry in [5], in assay [6], in [1] and in [2] was “Active” each time. For the same compound, the inhibition entry in [7] and in assay [8] was “inactive” each time. Besides, the outcome in assay [9] and in assay [10] was Active. The “fold change (FC)” value in [11] was 5.
